For five molecules, IC50 results are on record in patent US20230210999A1, “TARGETED PROTEASE DEGRADATION (TED) PLATFORM” (EUBULUS BIOTHERAPEUTICS INC., priority 2020, published 2023).

The subject of one assay is HUVEC cells. Nature of the assay: Cell proliferation experiment, HUVEC. It counts as cell-based. The following applies: Homo sapiens, 72 h, read-out: Inhibitory activity IC50 of tested compounds on HUVEC cells. The procedure: (§1) Reagents: RPMI-1640 medium, McCoy's 5A medium, IMDM medium, MEM medium, L-15 medium, fetal bovine serum. Penicillin-Streptomycin double antibody, trypsin, etc., 2-mercaptoethanol, NEAA, pyruvate, etc.
(§2) The cells were cultured in conventional ways, and the cells should be passed at least 2 generations before plating. Cells at the logarithmic growth phase were collected, prepared into single cell suspensions and counted. The concentration of cells was adjusted to the desired concentration, and cells were inoculated into a 96-well cell culture plate at 100 μl per well. 100 μL of complete medium of the test compound were added to each well, set up 2 duplicate wells for each concentration, and diluted with a 5-fold gradient, and continued to culture for 72 h. All cells were subjected to IC50 test for corresponding samples. The experimental results are shown in Test Example 4.
(§3) The fluorescence intensity of each well was detected using the Alarm blue method, and IC50 was calculated.
(§4) IC50 was calculated according to the following formula:
(§5) Y=Max+(Min−Max)/[1+(X/IC50)×Slope]
(§6) wherein Min, Max and Slope represent the minimum, maximum and slope respectively.
The term IC50 denotes the concentration that inhibits the measured activity by half. Turning to `CC[C@@H]1C(=O)N(C)c2cnc(Nc3ccc(C(=O)NC4CCN(CCCOCCCN(C)CCCC#Cc5cccc6c5CN(C5CCC(=O)NC5=O)C6=O)CC4)cc3OC)nc2N1C1CCCC1` (stereo partly drawn) [Compound 919], the IC50 was no more than 1000 nM.
On the same count and under the same terms, in the case of `CC[C@@H]1C(=O)N(C)c2cnc(Nc3ccc(C(=O)NCCCOCCOCCN(C)CCC#Cc4cccc5c4CN(C4CCC(=O)NC4=O)C5=O)cc3OC)nc2N1C1CCCC1` (stereo partly drawn) [Compound 920] it was no more than 1000 nM; in that of `CC[C@@H]1C(=O)N(C)c2cnc(Nc3ccc(C(=O)NCCCNCCCOCCC#Cc4cccc5c4CN(C4CCC(=O)NC4=O)C5=O)cc3OC)nc2N1C1CCCC1` (stereo partly drawn) [Compound 921], no more than 1000 nM.
Turning to `CC[C@@H]1C(=O)N(C)c2cnc(Nc3ccc(C(=O)NC4CCN(CCCCNCCCC#Cc5cccc6c5CN(C5CCC(=O)NC5=O)C6=O)CC4)cc3OC)nc2N1C1CCCC1` (stereo partly drawn) [Compound 922], the IC50 was no more than 1000 nM.
With `CC[C@@H]1C(=O)N(C)c2cnc(Nc3ccc(C(=O)NC4CCN(CCCCN(C)CCCC#Cc5cccc6c5CN(C5CCC(=O)NC5=O)C6=O)CC4)cc3OC)nc2N1C1CCCC1` (stereo partly drawn) [Compound 923], the IC50 was no more than 1000 nM.

The test system of a further assay is U-87MG cells. As to the kind of experiment: Cell proliferation experiment, U-87MG. It counts as cell-based. The following applies: Homo sapiens; U-87MG cells, 72 h; read-out: Inhibitory activity IC50 of tested compounds on U-87MG cells. The procedure: as §1, §2, §3, §4, §5, §6
For the molecule `CC[C@@H]1C(=O)N(C)c2cnc(Nc3ccc(C(=O)NC4CCN(CCCOCCCN(C)CCCC#Cc5cccc6c5CN(C5CCC(=O)NC5=O)C6=O)CC4)cc3OC)nc2N1C1CCCC1` (stereo partly drawn) [Compound 919], the IC50 fell in the range of 100 to 500 nM.
Still for that read-out and setting: in the case of `CC[C@@H]1C(=O)N(C)c2cnc(Nc3ccc(C(=O)NCCCOCCOCCN(C)CCC#Cc4cccc5c4CN(C4CCC(=O)NC4=O)C5=O)cc3OC)nc2N1C1CCCC1` (stereo partly drawn) [Compound 920] it was no more than 100 nM.
The same measure, in the same setting: in the case of `CC[C@@H]1C(=O)N(C)c2cnc(Nc3ccc(C(=O)NCCCNCCCOCCC#Cc4cccc5c4CN(C4CCC(=O)NC4=O)C5=O)cc3OC)nc2N1C1CCCC1` (stereo partly drawn) [Compound 921] it was 100 to 500 nM; in that of `CC[C@@H]1C(=O)N(C)c2cnc(Nc3ccc(C(=O)NC4CCN(CCCCNCCCC#Cc5cccc6c5CN(C5CCC(=O)NC5=O)C6=O)CC4)cc3OC)nc2N1C1CCCC1` (stereo partly drawn) [Compound 922], 100 to 500 nM; in that of `CC[C@@H]1C(=O)N(C)c2cnc(Nc3ccc(C(=O)NC4CCN(CCCCN(C)CCCC#Cc5cccc6c5CN(C5CCC(=O)NC5=O)C6=O)CC4)cc3OC)nc2N1C1CCCC1` (stereo partly drawn) [Compound 923], 100 to 500 nM.

Another assay deals with Daudi cells. As to the kind of experiment: Cell proliferation experiment, Daudi. The following applies: Homo sapiens, Daudi, 72 h, Daudi cells, 72 h; read-out: Inhibitory activity IC50 of tested compounds on Daudi cells. Format: cell-based, human. The procedure, abridged: (§7)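 Viability measured by Alamar blue fluorescence after 72 h culture with compound (5-fold serial dilutions, two wells each) added to log-phase cells. IC50 derived from a Min/Max/Slope logistic equation.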
With `CC[C@@H]1C(=O)N(C)c2cnc(Nc3ccc(C(=O)NC4CCN(CCCOCCCN(C)CCCC#Cc5cccc6c5CN(C5CCC(=O)NC5=O)C6=O)CC4)cc3OC)nc2N1C1CCCC1` (stereo partly drawn) [Compound 919], the IC50 is no more than 100 nM.
Still for that read-out and setting: for `CC[C@@H]1C(=O)N(C)c2cnc(Nc3ccc(C(=O)NCCCOCCOCCN(C)CCC#Cc4cccc5c4CN(C4CCC(=O)NC4=O)C5=O)cc3OC)nc2N1C1CCCC1` (stereo partly drawn) [Compound 920] the value was no more than 100 nM.
Still for that read-out and setting: for `CC[C@@H]1C(=O)N(C)c2cnc(Nc3ccc(C(=O)NCCCNCCCOCCC#Cc4cccc5c4CN(C4CCC(=O)NC4=O)C5=O)cc3OC)nc2N1C1CCCC1` (stereo partly drawn) [Compound 921] the value was 100 to 1000 nM; for `CC[C@@H]1C(=O)N(C)c2cnc(Nc3ccc(C(=O)NC4CCN(CCCCNCCCC#Cc5cccc6c5CN(C5CCC(=O)NC5=O)C6=O)CC4)cc3OC)nc2N1C1CCCC1` (stereo partly drawn) [Compound 922], 100 to 1000 nM; for `CC[C@@H]1C(=O)N(C)c2cnc(Nc3ccc(C(=O)NC4CCN(CCCCN(C)CCCC#Cc5cccc6c5CN(C5CCC(=O)NC5=O)C6=O)CC4)cc3OC)nc2N1C1CCCC1` (stereo partly drawn) [Compound 923], no more than 100 nM.

The next assay concerns MV4;11 cells. Nature of the assay: Cell proliferation experiment (Alamar blue, 72 h), MV4;11. The following applies: Homo sapiens, MV4-11, 72 h, MV4;11 cells, 72 h; read-out: Inhibitory activity IC50 of tested compounds on MV4;11 cells. It counts as cell-based, human. A digest of the protocol: as §7
(In general: Alamar Blue is a resazurin reagent that responds to reducing activity.)
As to `CC[C@@H]1C(=O)N(C)c2cnc(Nc3ccc(C(=O)NC4CCN(CCCOCCCN(C)CCCC#Cc5cccc6c5CN(C5CCC(=O)NC5=O)C6=O)CC4)cc3OC)nc2N1C1CCCC1` (stereo partly drawn) [Compound 919], the IC50 is no more than 100 nM.
Take `CC[C@@H]1C(=O)N(C)c2cnc(Nc3ccc(C(=O)NCCCOCCOCCN(C)CCC#Cc4cccc5c4CN(C4CCC(=O)NC4=O)C5=O)cc3OC)nc2N1C1CCCC1` (stereo partly drawn) [Compound 920]: the IC50 was no more than 100 nM.
Turning to `CC[C@@H]1C(=O)N(C)c2cnc(Nc3ccc(C(=O)NCCCNCCCOCCC#Cc4cccc5c4CN(C4CCC(=O)NC4=O)C5=O)cc3OC)nc2N1C1CCCC1` (stereo partly drawn) [Compound 921], the IC50 is no more than 100 nM.
In the case of `CC[C@@H]1C(=O)N(C)c2cnc(Nc3ccc(C(=O)NC4CCN(CCCCNCCCC#Cc5cccc6c5CN(C5CCC(=O)NC5=O)C6=O)CC4)cc3OC)nc2N1C1CCCC1` (stereo partly drawn) [Compound 922], the IC50 is no more than 100 nM.
With `CC[C@@H]1C(=O)N(C)c2cnc(Nc3ccc(C(=O)NC4CCN(CCCCN(C)CCCC#Cc5cccc6c5CN(C5CCC(=O)NC5=O)C6=O)CC4)cc3OC)nc2N1C1CCCC1` (stereo partly drawn) [Compound 923], the IC50 was no more than 100 nM.

The next assay concerns HT-29 cells. Nature of the assay: Cell proliferation experiment, HT-29. The following applies: Homo sapiens; HT-29 cells, 72 h; read-out: Inhibitory activity IC50 of tested compounds on HT-29 cells. Format: cell-based. The procedure: as §1, §2, §3, §4, §5, §6
With `CC[C@@H]1C(=O)N(C)c2cnc(Nc3ccc(C(=O)NC4CCN(CCCOCCCN(C)CCCC#Cc5cccc6c5CN(C5CCC(=O)NC5=O)C6=O)CC4)cc3OC)nc2N1C1CCCC1` (stereo partly drawn) [Compound 919], the IC50 was 300 to 1000 nM.
As for `CC[C@@H]1C(=O)N(C)c2cnc(Nc3ccc(C(=O)NCCCOCCOCCN(C)CCC#Cc4cccc5c4CN(C4CCC(=O)NC4=O)C5=O)cc3OC)nc2N1C1CCCC1` (stereo partly drawn) [Compound 920], the IC50 lay in the range of 300 to 1000 nM.
As for `CC[C@@H]1C(=O)N(C)c2cnc(Nc3ccc(C(=O)NCCCNCCCOCCC#Cc4cccc5c4CN(C4CCC(=O)NC4=O)C5=O)cc3OC)nc2N1C1CCCC1` (stereo partly drawn) [Compound 921], the half-inhibitory concentration (IC50) is greater than 1000 nM.
Consider `CC[C@@H]1C(=O)N(C)c2cnc(Nc3ccc(C(=O)NC4CCN(CCCCNCCCC#Cc5cccc6c5CN(C5CCC(=O)NC5=O)C6=O)CC4)cc3OC)nc2N1C1CCCC1` (stereo partly drawn) [Compound 922], for which the IC50 is 300 to 1000 nM.
Consider `CC[C@@H]1C(=O)N(C)c2cnc(Nc3ccc(C(=O)NC4CCN(CCCCN(C)CCCC#Cc5cccc6c5CN(C5CCC(=O)NC5=O)C6=O)CC4)cc3OC)nc2N1C1CCCC1` (stereo partly drawn) [Compound 923], for which the IC50 was no more than 300 nM.

The next assay has as its system NCIH82 cells. As to the kind of experiment: Cell proliferation experiment, NCI-H82. Format: cell-based, human. The following applies: Homo sapiens, NCI-H82, 72 h, NCIH82 cells, 72 h; read-out: Inhibitory activity IC50 of tested compounds on NCIH82 cells. The procedure, abridged:
as §7
As to `CC[C@@H]1C(=O)N(C)c2cnc(Nc3ccc(C(=O)NC4CCN(CCCOCCCN(C)CCCC#Cc5cccc6c5CN(C5CCC(=O)NC5=O)C6=O)CC4)cc3OC)nc2N1C1CCCC1` (stereo partly drawn) [Compound 919], the 50% inhibitory concentration (IC50) is no more than 1000 nM.
In the case of `CC[C@@H]1C(=O)N(C)c2cnc(Nc3ccc(C(=O)NCCCOCCOCCN(C)CCC#Cc4cccc5c4CN(C4CCC(=O)NC4=O)C5=O)cc3OC)nc2N1C1CCCC1` (stereo partly drawn) [Compound 920], the IC50 is no more than 1000 nM.
Same read-out and setting: for `CC[C@@H]1C(=O)N(C)c2cnc(Nc3ccc(C(=O)NCCCNCCCOCCC#Cc4cccc5c4CN(C4CCC(=O)NC4=O)C5=O)cc3OC)nc2N1C1CCCC1` (stereo partly drawn) [Compound 921] the value was greater than 1000 nM; for `CC[C@@H]1C(=O)N(C)c2cnc(Nc3ccc(C(=O)NC4CCN(CCCCNCCCC#Cc5cccc6c5CN(C5CCC(=O)NC5=O)C6=O)CC4)cc3OC)nc2N1C1CCCC1` (stereo partly drawn) [Compound 922], no more than 1000 nM; for `CC[C@@H]1C(=O)N(C)c2cnc(Nc3ccc(C(=O)NC4CCN(CCCCN(C)CCCC#Cc5cccc6c5CN(C5CCC(=O)NC5=O)C6=O)CC4)cc3OC)nc2N1C1CCCC1` (stereo partly drawn) [Compound 923], no more than 1000 nM.
